Measurements: patent US12011444B2, “N-substituted indole derivatives as PGE2 receptor modulators” (Idorsia Pharmaceuticals Ltd, priority 2015, dated 2024)

Key:
EP4 = EP4 (Homo sapiens (Human), UniProt P35408); test: hEP4 cAMP assay (BT549 breast cancer cells, HTRF cAMP); type: cell-based; conditions: antagonistic activity; mean values where measured multiple times
Description: Plate is pre-incubated 45 minutes at room temperature. Subsequently, 2.5 microliters of PGE2 (final conc. 6 nM) are transferred into the assay plate. Plate is incubated 30 minutes at room temperature.

EP2 = EP2 (Homo sapiens (Human), UniProt P43116);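 further: antagonism of PGE2-stimulated cAMP accumulation in SF295 human glioblastoma cells with endogenous EP2, cAMP read by HTRF, expressed relative to DMSO control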
EP2, sequence (P43116 whole entry): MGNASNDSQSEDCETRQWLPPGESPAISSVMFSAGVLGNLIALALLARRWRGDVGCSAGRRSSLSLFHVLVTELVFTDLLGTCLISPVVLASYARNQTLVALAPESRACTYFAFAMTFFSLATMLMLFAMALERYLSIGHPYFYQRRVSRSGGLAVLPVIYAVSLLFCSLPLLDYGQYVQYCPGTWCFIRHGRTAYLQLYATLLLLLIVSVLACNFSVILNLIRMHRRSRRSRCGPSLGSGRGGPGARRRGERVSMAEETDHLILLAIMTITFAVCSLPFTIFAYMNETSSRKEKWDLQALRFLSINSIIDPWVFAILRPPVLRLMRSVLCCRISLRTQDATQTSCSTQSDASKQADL

EP4, sequence (P35408 whole entry): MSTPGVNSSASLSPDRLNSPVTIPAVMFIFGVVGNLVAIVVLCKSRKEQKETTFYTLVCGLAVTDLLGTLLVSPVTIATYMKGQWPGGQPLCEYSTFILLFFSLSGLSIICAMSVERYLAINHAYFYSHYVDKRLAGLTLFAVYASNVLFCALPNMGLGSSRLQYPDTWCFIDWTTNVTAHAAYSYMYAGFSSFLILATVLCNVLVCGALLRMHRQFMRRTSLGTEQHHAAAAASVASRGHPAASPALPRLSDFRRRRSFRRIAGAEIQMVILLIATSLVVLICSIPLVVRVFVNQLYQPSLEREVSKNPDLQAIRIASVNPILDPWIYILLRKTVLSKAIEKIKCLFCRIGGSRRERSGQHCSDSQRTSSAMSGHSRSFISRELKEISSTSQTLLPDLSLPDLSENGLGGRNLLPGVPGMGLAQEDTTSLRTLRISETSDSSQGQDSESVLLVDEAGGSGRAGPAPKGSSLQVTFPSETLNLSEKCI

IC50 (EP4)	IC50 (EP2)	SMILES
170 nM	70 nM	COc1cc(-c2cc(NCCn3c(C)cc4c(C)ccc(F)c43)ncn2)ccc1-c1nnn[nH]1 [Example 748, [2-(7-Fluoro-2,4-dimethyl-indol-1-yl)-ethyl]-{6-[3-methoxy-4-(1H-tetrazol-5-yl)-phenyl]-pyrimidin-4-yl}-amine]
425 nM	81 nM	COc1cc(-c2ccc(-c3cc(NCCn4c(C)cc5c(OC)cc(F)cc54)ncn3)cc2)ncn1 [Example 749, [2-(6-Fluoro-4-methoxy-2-methyl-indol-1-yl)-ethyl]-{6-[4-(6-methoxy-pyrimidin-4-yl)-phenyl]-pyrimidin-4-yl}-amine]
91 nM	16 nM	COc1cc(F)cc2c1cc(C)n2CCNc1cc(-c2ccc(-c3cnccn3)cc2)ncn1 [Example 750, [2-(6-Fluoro-4-methoxy-2-methyl-indol-1-yl)-ethyl]-[6-(4-pyrazin-2-yl-phenyl)-pyrimidin-4-yl]-amine]
105 nM	8 nM	COc1cc(F)cc2c1cc(C)n2CCNc1cc(-c2ccc(-c3nccs3)cc2)ncn1 [Example 751, [2-(6-Fluoro-4-methoxy-2-methyl-indol-1-yl)-ethyl]-[6-(4-thiazol-2-yl-phenyl)-pyrimidin-4-yl]-amine]
633 nM	85 nM	COc1cc(F)cc2c1cc(C)n2CCNc1cc(-c2ccc(-c3ncc(C)n3C)cc2)ncn1 [Example 752, {6-[4-(1,5-Dimethyl-1H-imidazol-2-yl)-phenyl]-pyrimidin-4-yl}-[2-(6-fluoro-4-methoxy-2-methyl-indol-1-yl)-ethyl]-amine]
548 nM	101 nM	COc1cc(F)cc2c1cc(C)n2CCNc1cc(-c2ccc(-c3ncnn3C)cc2)ncn1 [Example 753, [2-(6-Fluoro-4-methoxy-2-methyl-indol-1-yl)-ethyl]-{6-[4-(2-methyl-2H-[1,2,4]triazol-3-yl)-phenyl]-pyrimidin-4-yl}-amine]
194 nM	85 nM	COc1ccc(-c2ccc(-c3cc(NCCn4c(C)cc5c(OC)cc(F)cc54)ncn3)cc2)nn1 [Example 756, [2-(6-Fluoro-4-methoxy-2-methyl-indol-1-yl)-ethyl]-{6-[4-(6-methoxy-pyridazin-3-yl)-phenyl]-pyrimidin-4-yl}-amine]
345 nM	44 nM	COc1cnc(-c2ccc(-c3cc(NCCn4c(C)cc5c(OC)cc(F)cc54)ncn3)cc2)nc1 [Example 757, [2-(6-Fluoro-4-methoxy-2-methyl-indol-1-yl)-ethyl]-{6-[4-(5-methoxy-pyrimidin-2-yl)-phenyl]-pyrimidin-4-yl}-amine]
113 nM	32 nM	COc1cc(F)cc2c1cc(C)n2CCNc1cc(-c2ccc(-c3nc(C)cs3)cc2)ncn1 [Example 758, [2-(6-Fluoro-4-methoxy-2-methyl-indol-1-yl)-ethyl]-{6-[4-(4-methyl-thiazol-2-yl)-phenyl]-pyrimidin-4-yl}-amine]
760 nM	55 nM	COc1cc(F)cc2c1cc(C)n2CCNc1cc(-c2ccc(-c3cc(F)ccn3)cc2)ncn1 [Example 759, [2-(6-Fluoro-4-methoxy-2-methyl-indol-1-yl)-ethyl]-{6-[4-(4-fluoro-pyridin-2-yl)-phenyl]-pyrimidin-4-yl}-amine]
795 nM	90 nM	COc1cc(F)cc2c1cc(C)n2CCNc1cc(-c2ccc(-c3nc(C)c(C)s3)cc2)ncn1 [Example 760, {6-[4-(4,5-Dimethyl-thiazol-2-yl)-phenyl]-pyrimidin-4-yl}-[2-(6-fluoro-4-methoxy-2-methyl-indol-1-yl)-ethyl]-amine]
161 nM	40 nM	COc1cncc(-c2ccc(-c3cc(NCCn4c(C)cc5c(OC)cc(F)cc54)ncn3)cc2)n1 [Example 761, [2-(6-Fluoro-4-methoxy-2-methyl-indol-1-yl)-ethyl]-{6-[4-(6-methoxy-pyrazin-2-yl)-phenyl]-pyrimidin-4-yl}-amine]
304 nM	98 nM	COc1cc(F)cc2c1cc(C)n2CCNc1cc(-c2ccc(-c3ncc(F)cn3)cc2)ncn1 [Example 762, [2-(6-Fluoro-4-methoxy-2-methyl-indol-1-yl)-ethyl]-{6-[4-(5-fluoro-pyrimidin-2-yl)-phenyl]-pyrimidin-4-yl}-amine]
139 nM	25 nM	COc1cc(F)cc2c1cc(C)n2CCNc1cc(-c2ccc(-c3cc(N(C)C)ncn3)cc2)ncn1 [Example 763, 6-(4-(6-((2-(6-Fluoro-4-methoxy-2-methyl-1H-indol-1-yl)ethyl)amino)pyrimidin-4-yl)phenyl)-N,N-dimethylpyrimidin-4-amine]
815 nM	8 nM	Cc1cc2ccccc2n1CCNc1cc(-c2ccc(-c3nccs3)cc2)ncn1 [Example 764, [2-(2-Methyl-indol-1-yl)-ethyl]-[6-(4-thiazol-2-yl-phenyl)-pyrimidin-4-yl]-amine]
403 nM	13 nM	CCOc1cc(-c2cc(NCCn3c(C)cc4c(OC)ccc(F)c43)ncn2)ccc1C(=O)NOC [Example 765, 2-Ethoxy-4-{6-[2-(7-fluoro-4-methoxy-2-methyl-indol-1-yl)-ethylamino]-pyrimidin-4-yl}-N-methoxy-benzamide]
251 nM	20 nM	CCONC(=O)c1ccc(-c2cc(NCCn3c(C)cc4c(OC)ccc(F)c43)ncn2)cc1OCC [Example 767, 2,N-Diethoxy-4-{6-[2-(7-fluoro-4-methoxy-2-methyl-indol-1-yl)-ethylamino]-pyrimidin-4-yl}-benzamide]
928 nM	35 nM	CCOc1cc(-c2cc(NCCn3c(C)cc4c(C)ccc(F)c43)ncn2)ccc1C(=O)NOCc1ccccc1 [Example 768, N-Benzyloxy-2-ethoxy-4-{6-[2-(7-fluoro-2,4-dimethyl-indol-1-yl)-ethylamino]-pyrimidin-4-yl}-benzamide]
374 nM	16 nM	CCOc1cc(-c2cc(NCCn3c(C)cc4c(OC)ccc(F)c43)ncn2)ccc1C(=O)NOC(C)C [Example 770, 2-Ethoxy-4-{6-[2-(7-fluoro-4-methoxy-2-methyl-indol-1-yl)-ethylamino]-pyrimidin-4-yl}-N-isopropoxy-benzamide]
317 nM	15 nM	Cc1cc2ccccc2n1CCNc1cc(-c2ccc3c(=O)[nH][nH]c3c2)ncn1 [Example 772, 6-{6-[2-(2-Methyl-indol-1-yl)-ethylamino]-pyrimidin-4-yl}-1,2-dihydro-indazol-3-one]
49 nM	32 nM	COc1ccc(F)c2c1cc(C)n2CCNc1cc(-c2ccc3c(=O)[nH][nH]c3c2)ncn1 [Example 773, 6-{6-[2-(7-Fluoro-4-methoxy-2-methyl-indol-1-yl)-ethylamino]-pyrimidin-4-yl}-1,2-dihydro-indazol-3-one]
637 nM	4 nM	Cc1cc2ccccc2n1CCNc1cc(-c2ccc3c(=O)[nH]oc3c2)ncn1 [Example 774, 6-{6-[2-(2-Methyl-indol-1-yl)-ethylamino]-pyrimidin-4-yl}-benzo[d]isoxazol-3-one]
206 nM	10 nM	CCOc1cc(-c2cc(NCCn3c(Cl)cc4c(OC)ccc(Cl)c43)ncn2)ccc1C(=O)O [Example 775, 4-{6-[2-(2,7-Dichloro-4-methoxy-indol-1-yl)-ethylamino]-pyrimidin-4-yl}-2-ethoxy-benzoic acid]
44 nM	6 nM	CCOc1cc(-c2cc(NCCn3c(Cl)cc4c(OC)ccc(F)c43)ncn2)ccc1C(=O)O [Example 776, 4-{6-[2-(2-Chloro-7-fluoro-4-methoxy-indol-1-yl)-ethylamino]-pyrimidin-4-yl}-2-ethoxy-benzoic acid]
3 nM	2 nM	CCOc1cc(-c2cc(NCCn3c(Cl)cc4c(OC)ccc(F)c43)ncn2)sc1C(=O)O [Example 777, 5-{6-[2-(2-Chloro-7-fluoro-4-methoxy-indol-1-yl)-ethylamino]-pyrimidin-4-yl}-3-ethoxy-thiophene-2-carboxylic acid]
175 nM	15 nM	CCOc1cc(-c2cc(NCCn3c(Cl)cc4c(Cl)ccc(F)c43)ncn2)ccc1C(=O)O [Example 778, 4-{6-[2-(2,4-Dichloro-7-fluoro-indol-1-yl)-ethylamino]-pyrimidin-4-yl}-2-ethoxy-benzoic acid]
242 nM	28 nM	CCOc1cc(-c2cc(NCCn3c(Cl)cc4c(C)ccc(F)c43)ncn2)ccc1C(=O)O [Example 779, 4-{6-[2-(2-Chloro-7-fluoro-4-methyl-indol-1-yl)-ethylamino]-pyrimidin-4-yl}-2-ethoxy-benzoic acid]
826 nM	6 nM	CCOc1cc(-c2cc(NCCn3c(C)cc4c(Br)cccc43)ncn2)ccc1C(=O)O [Example 780, 4-{6-[2-(4-Bromo-2-methyl-indol-1-yl)-ethylamino]-pyrimidin-4-yl}-2-ethoxy-benzoic acid]
18 nM	1 nM	CCOc1cc(-c2cc(NCCn3c(C)cc4c(Br)cccc43)ncn2)sc1C(=O)O [Example 781, 5-{6-[2-(4-Bromo-2-methyl-indol-1-yl)-ethylamino]-pyrimidin-4-yl}-3-ethoxy-thiophene-2-carboxylic acid]
91 nM	39 nM	COc1c(F)cc(Cl)c2c1cc(C)n2CCNc1cc(-c2ccc3c(=O)[nH][nH]c3c2)ncn1 [Example 782, 6-{6-[2-(7-Chloro-5-fluoro-4-methoxy-2-methyl-indol-1-yl)-ethylamino]-pyrimidin-4-yl}-1,2-dihydro-indazol-3-one]

SMILES	IC50 (EP4)	IC50 (EP2)
COc1cc(F)cc2c1cc(C)n2CCNc1cc(-c2ccc(-c3ncccn3)cc2)ncn1 [Example 755, [2-(6-Fluoro-4-methoxy-2-methyl-indol-1-yl)-ethyl]-[6-(4-pyrimidin-2-yl-phenyl)-pyrimidin-4-yl]-amine]	452 nM	41 nM
